Results from patent US20060159617A1, “Small technetium-99m and rhenium labeled agents and methods for imaging tissues, organs and tumors” (priority 2002, published 2006).

How the values were obtained:
σ2 receptor = molecular target: T1, σ2 receptor (Rattus norvegicus, UniProt Q5U3Y7); assay: σ2 receptor competition binding assay with [3H]-DTG, σ1 masked; conditions: apparent Ki, rat liver membranes
T1 construct: Rat liver membranes were prepared from male Sprague-Dawley rat livers as previously described; from tissue; host or cells: male Sprague-Dawley rat liver membranes
T1 sequence (Q5U3Y7 1-176): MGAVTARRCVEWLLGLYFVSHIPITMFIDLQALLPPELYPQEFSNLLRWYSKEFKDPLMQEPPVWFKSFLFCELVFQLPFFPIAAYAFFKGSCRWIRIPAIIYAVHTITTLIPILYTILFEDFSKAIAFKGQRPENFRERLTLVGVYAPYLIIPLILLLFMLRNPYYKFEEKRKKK
Method: Rat liver membranes were prepared from male Sprague-Dawley rat livers as previously described (Eur. J. Pharmacol.—Mol. Pharmacol. Sect. 1994, 268, 9-18). The in vitro σ2 receptor binding affinities of rhenium coordinated complexes were determined in a competition assay using rat livers and [^3H]-DTG (31 Ci/mmol, NEN Life Science Inc., Cambridge, Mass.) as radioligand in the presence of 10 μM 1-pyrrolidinylethyl 3,4-dichlorophenylacetate oxalate (ACT915 oxalate) to mask σ1 receptors (Bioorg. & Med. Chem. Lett. 2000, 10, 17-18). Competition assays were performed with twelve concentrations of the nonradioactive rhenium complexes ranging from 1×10^−10 to 1×10^−3 and protein samples (0.15 mg of membrane protein) in a total volume of 0.25 mL of Tris-HCl (50 mM, pH 8.0) for 120 min at 25° C. All other manipulations and data analysis were performed as described vide supra for the σ1-receptor assays.

σ1 receptor = molecular target: T2, σ1 receptor (Cavia porcellus, UniProt Q60492); assay: Sigma-1 receptor competition binding assay with [3H]-(+)-pentazocine; design: species or system guinea pig; conditions: apparent Ki (Cheng-Prusoff), brain membranes
T2 construct: The membranes were prepared from guinea pig brain (minus cerebellum) as described above; from tissue; host or cells: guinea pig brain (minus cerebellum) membranes
T2 sequence (Q60492 whole entry): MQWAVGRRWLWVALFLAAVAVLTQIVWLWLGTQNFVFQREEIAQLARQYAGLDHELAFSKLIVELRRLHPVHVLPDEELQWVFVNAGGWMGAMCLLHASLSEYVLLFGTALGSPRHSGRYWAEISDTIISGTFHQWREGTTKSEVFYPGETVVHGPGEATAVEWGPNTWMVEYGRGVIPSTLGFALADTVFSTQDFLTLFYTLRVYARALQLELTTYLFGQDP
Method: The in vitro σ1 receptor binding affinities of rhenium coordinated complexes were determined in a competition assay using […] and high-affinity σ1 ligand [3H]-(+)-pentazocine (28 Ci/mmol, NEN Life Science Inc., Cambridge, Mass.). See, Mol. Neuropharmacol. 1993, 3, 117-126.
The membranes were prepared from guinea pig brain (minus cerebellum) as described above and stored at −70 ° C. Twelve concentrations of the nonradioactive rhenium complexes ranging from 1×10^−11 to 1×10^−3 and protein samples (0.15 mg of membrane protein) were incubated with […] [3H]-(+)-pentazocine in a total volume of 0.25 mL of Tris-HCl (50 mM, pH 8.0). Incubations were carried out for 120 min at 25° C. All assays were terminated by dilution with 5 mL of ice-cold Tris-HCl (10 mM), pH 8.0, and solution were filtered through glass-fiber filters (Whatman GF/F; presoaked in 0.5% polyethyleneimine for 30 min at 25° C.). Filters were then washed three times with 5 mL of ice-cold Tris-HCl (50 mM, pH 8.0), and counted in Hionic-Fluor cocktail (Packard, Groningen, the Netherlands). The corresponding IC50 values were determined with Origin 6.0 software (OriginLab, Northampton, Mass.) and were used for the calculation of the apparent Ki values with the Cheng-Prusoff equation. See, Biochem. Pharmacol. 1973, 22, 3099-3108.

[1] = Determination of lipophilicity and pKa values by HPLC; assay type: physicochemical
Method: The lipophilicity and pKa values of all complexes were determined using HPLC methods described previously (Stylli, C.; Theobald, A. E. Determination of Ionization Constants of Radiopharmaceuticals in Mixed Solvents by HPLC. Appl. Radiat. Isot., 1987, 38, 701-708; Johannsen, B.; Scheunemann, M.; Spies, H.; Brust, P.; Wober, J.; Syhre, R.; Pietzsch, H.-J. Technetium(V) and Rhenium(V) Complexes for 5-HT2A Serotonin Receptor Binding: Structure-Affinity Considerations. Nucl. Med. Biol., 1996, 23, 429-438; and Johannsen, B.; Berger, R.; Brust, P.; Pietzsch, H.-J.; Scheunemann, M.; Seifert, S.; Spies, H.; Syhre, R. Structural Modification of Receptor-Binding Technetium-99m Complexes in Order to Improve Brain Uptake. Eur. J. Nucl. Med. 1997, 24, 316-319). […] The mobile phase was acetonitrile:phosphate buffer (0.01 M), 3:1, v/v, with the aqueous buffer adjusted to the desired pH between 3 and 11. The capacity factor (k′) was calculated for each determination (Braumann, T.; Grimme, L. H. Determination of Hydrophobic Parameters for Pyridazinone Herbicides by Liquid-Liquid Partition and Reversed-Phase High-Performance Liquid Chromatography. J. Chromatogr. 1981, 206, 7-15; El Tayer, N.; van der Waterbeemd, H.; Testa, B. Lipophilicity Measurements of Protonated Basic Compounds by Reversed-Phase High-Performance Liquid Chromatography. II. Procedure for the Determination of a Lipophilic Index Measured by Reversed-Phase High Performance Liquid Chromatography. J. Chromatogr. 1985, 320, 305-312; and Minick, D. J.; Frenz, J. H.; Patrick, M. A.; Brent, D. A. A Comprehensive Method for Determining Hydrophobicity Constants by Reversed-Phase High-Performance Liquid Chromatography. J. Med. Chem., 1988, 31, 1923-1933) and the partition coefficient at a given pH (D or logD) were calculated from the equation: log D=a log k′+b where the parameters a and b are predetermined using standard amines. The fitted points of inflection from the sigmoidal DHPLC/pH profiles permit calculation of the pKHPLC(Stylli, C.; Theobald, A. E. Determination of Ionization Constants of Radiopharmaceuticals in Mixed Solvents by HPLC. Appl. Radiat. Isot., 1987, 38, 701-708). The aqueous ionization constants pKa were calculated from the pKHPLC values after correction with a predetermined correction factor obtained using standard amine compounds. Log P values of the neutral complexes were estimated from the respective upper plateau of the sigmoidal log D/pH curve in the alkaline range.

α1 receptor = assay: Alpha-1 receptor competition binding assay with [3H]-Prazosin; conditions: apparent Ki, rat frontal cortex
Method: The in vitro α1 receptor binding affinities of rhenium coordinated complexes were determined in a competition assay using rat frontal cortex and high-affinity α1 ligand [^3H]-Prazosin (80 Ci/mmol, NEN Life Science Inc., Cambridge, Mass.). See, Eur. J. Nucl. Med. 2002, 29, 82-87.
The frontal cortex of rat brain was prepared as described above and store at −70° C. until used in the binding assays. Ten concentrations of the nonradioactive rhenium complexes ranging from 1×10^−10 to 1×10^−3 and protein samples (0.15 mg of membrane protein) were incubated with 1.5 nM [^3H]-Prazosin in a total volume of 0.25 mL of Tris-HCl (50 mM, pH 7.4, 10 mM MgSO4). Incubations were carried out for 60 min at 25° C. All assays were terminated by dilution with 5 mL of ice-cold Tris-HCl (10 mM), pH 7.4, and solution were filtered through glass-fiber filters (Whatman GF/F; presoaked in 0.5% polyethyleneimine for 30 min at 25° C.). Filters were then washed three times with 5 mL of ice-cold Tris-HCl (50 mM, pH 7.4), and counted in Hionic-Fluor cocktail (Packard, Groningen, the Netherlands). The corresponding IC50 values were determined with Origin 6.0 software (OriginLab, Northampton, Mass.) and were used for the calculation of the apparent Ki values with the Cheng-Prusoff equation. See, Biocheni. Pharmacol. 1973, 22, 3099-3108.

B16 melanoma = assay: In-vivo tumor uptake / biodistribution, B16 melanoma-bearing mice; conditions: 1 h, B16/F0 melanoma mice
Method: (§1) To study the tumor uptake of radiolabeled metal complexes, in vivo, biodistribution experiments at 1 h after their administration were carried out in C57B16 male mice with palpable B16 melanoma nodules and male nude mice bearing DU145 human prostate carcinoma in the hind limb.
(§2) The biodistribution data including tumor/nontumor (T/NT) ratios for selected organs are summarized in Table 1 and 2 as percentage injected dose per gram (% ID/g).

[2] = system: DU145 human prostate carcinoma; assay: In-vivo tumor uptake / biodistribution, DU145 tumor-bearing nude mice; conditions: 1 h
Method: as §1, §2

Work on `O=C(CN1CC[S][Re]2(=[O])[S]CC[N]2C(=O)C1)NC1CCN(Cc2ccccc2)CC1` (stereo not shown) [Re-22] yielded a Ki (σ2 receptor) of 4710 ± 986 nM and a Ki (σ1 receptor) of 5510 nM.

With `O=C1CN(CCCN2CCC(O)(c3ccc(Cl)cc3)CC2)CC[S][Re]2(=[O])[S]CC[N]12` (stereo not shown) [Re-18] the “k' (pH = 7.4)” value ([1]; HPLC capacity factor at pH 7.4) was 29.7, the “k' (Max)” value ([1]; HPLC capacity factor, maximum) was 37.5 and the “pKa (Corrected)” value ([1]; HPLC method, corrected with standard amines) was 7.26. It also gave a Ki (σ2 receptor) of 528 ± 111 nM, a Ki (σ1 receptor) of 2960 nM and a Ki (α1 receptor) of 980 ± 180 nM.

With `O=C1CN(CCCN2CCC(Cc3ccccc3)CC2)CC[S][99Tc]2(=[O])[S]CC[N]12` (stereo not shown) [Re 99mTc-15] the Tumor/Blood ratio (B16 melanoma) was 7.47, the Tumor/Liver ratio (B16 melanoma) was 0.21 and the Tumor/Lung ratio (B16 melanoma) was 0.31. The Tumor/Muscle ratio (B16 melanoma) was 3.57, the “Blood %ID/g” value (B16 melanoma; blood) was 0.44 %ID/g and the “Brain %ID/g” value (B16 melanoma; brain) was 0.48 %ID/g. The “Heart %ID/g” value (B16 melanoma; heart) was 1.87 %ID/g, the “Intestine %ID/g” value (B16 melanoma; intestine) was 14.38 %ID/g and the “Kidney %ID/g” value (B16 melanoma; kidney) was 7.66 %ID/g. The “Liver %ID/g” value (B16 melanoma; liver) was 10.23 %ID/g, the “Lung %ID/g” value (B16 melanoma; lung) was 15.60 %ID/g and the “Muscle %ID/g” value (B16 melanoma; muscle) was 0.90 %ID/g. For the same compound, the “Skin %ID/g” value (B16 melanoma; skin) was 1.21 %ID/g, the “Spleen %ID/g” value (B16 melanoma; spleen) was 5.95 %ID/g and the “Stomach %ID/g” value (B16 melanoma; stomach) was 6.81 %ID/g. The “Tumor %ID/g” value (B16 melanoma; tumor) was 3.18 %ID/g, the Tumor/Blood ratio [2] was 7.93 and the Tumor/Liver ratio [2] was 0.21. For the same compound, the Tumor/Lung ratio [2] was 0.25, the Tumor/Muscle ratio [2] was 2.33 and the “Blood %ID/g” value ([2]; blood) was 0.31 %ID/g. The “Brain %ID/g” value ([2]; brain) was 0.51 %ID/g, the “Heart %ID/g” value ([2]; heart) was 1.82 %ID/g and the “Intestine %ID/g” value ([2]; intestine) was 20.94 %ID/g. The “Kidney %ID/g” value ([2]; kidney) was 7.92 %ID/g, the “Liver %ID/g” value ([2]; liver) was 12.06 %ID/g and the “Lung %ID/g” value ([2]; lung) was 9.96 %ID/g. For the same compound, the “Muscle %ID/g” value ([2]; muscle) was 1.06 %ID/g, the “Skin %ID/g” value ([2]; skin) was 1.76 %ID/g and the “Spleen %ID/g” value ([2]; spleen) was 7.56 %ID/g. The “Stomach %ID/g” value ([2]; stomach) was 5.26 %ID/g and the “Tumor %ID/g” value ([2]; tumor) was 2.46 %ID/g.
